Experimental data reported in patent publication US9834542B2, “LXR modulators” (BRISTOL-MYERS SQUIBB COMPANY, priority 2013, dated 2017).

Biological target: T1, LXRβ (Homo sapiens, UniProt P55055)
T1 construct: Co-transfection expression plasmids, comprising full-length LXRα (pCMX-h LXRα[…] or LXRβ (pCMX-hLXRβ)); expressed in transfected cells; host or cells: CV-1 African Green Monkey Kidney Cells
T1 sequence (P55055 1-460): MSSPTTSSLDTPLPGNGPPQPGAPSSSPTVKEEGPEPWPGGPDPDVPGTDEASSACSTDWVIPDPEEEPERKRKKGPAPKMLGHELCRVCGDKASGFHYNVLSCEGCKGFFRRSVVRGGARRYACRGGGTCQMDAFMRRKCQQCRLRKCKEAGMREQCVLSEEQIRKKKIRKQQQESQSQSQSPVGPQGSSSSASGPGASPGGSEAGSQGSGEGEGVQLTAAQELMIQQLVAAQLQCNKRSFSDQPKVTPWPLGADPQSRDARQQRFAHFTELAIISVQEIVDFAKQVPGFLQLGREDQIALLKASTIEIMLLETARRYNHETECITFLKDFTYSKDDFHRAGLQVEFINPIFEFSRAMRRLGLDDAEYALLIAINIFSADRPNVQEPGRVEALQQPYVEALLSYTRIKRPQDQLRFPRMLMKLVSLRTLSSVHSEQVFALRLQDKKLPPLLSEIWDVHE
T1 sequence (P19793 1-462 partner): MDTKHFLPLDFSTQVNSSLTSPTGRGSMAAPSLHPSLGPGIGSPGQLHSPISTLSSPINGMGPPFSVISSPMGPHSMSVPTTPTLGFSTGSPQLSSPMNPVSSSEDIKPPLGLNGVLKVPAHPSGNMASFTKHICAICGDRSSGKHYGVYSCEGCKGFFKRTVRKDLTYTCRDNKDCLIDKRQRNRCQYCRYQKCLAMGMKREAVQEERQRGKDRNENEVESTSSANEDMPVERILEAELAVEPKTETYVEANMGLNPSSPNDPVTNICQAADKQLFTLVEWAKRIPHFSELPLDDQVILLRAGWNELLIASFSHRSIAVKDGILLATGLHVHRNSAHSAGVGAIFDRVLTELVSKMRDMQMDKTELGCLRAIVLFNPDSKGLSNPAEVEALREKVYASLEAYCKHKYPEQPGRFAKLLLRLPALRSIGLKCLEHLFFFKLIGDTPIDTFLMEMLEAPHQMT
Assay: Co-transfection assay (LXRE luciferase reporter), LXRβ
Format: cell-based
Conditions: for EC50: CV-1 cells transfected with pCMX-hLXRβ and LXREx1-Tk-Luciferase, 20 hours incubation; for Emax: LXRβ co-transfection, relative to high control 1-(2,4-difluorobenzyl)-2-oxo-6-(4-phenoxyphenyl)-4-(trifluoromethyl)-1,2-dihydropyridine-3-carbonitrile, read-out: % Efficacy
Excerpt: To measure the ability of compounds to activate or inhibit the transcriptional activity of LXR in a cell based assay, the co-transfection assay was used. It has been shown that LXR functions as a heterodimer with RXR. For the co-transfection assay, expression plasmids for LXRα and LXRβ are introduced separately via transient transfection into mammalian cells along with a luciferase reporter plasmid that contains one copy of a DNA sequence that is bound by LXR-RXR heterodimers (LXRE; Willy, P. et. al. 1995). LXRs heterodimerize with the endogenous RXR. Treatment of transfected cells with an LXR agonist increases the transcriptional activity of LXR, which is measured by an increase in luciferase activity.
CV-1 African Green Monkey Kidney Cells
Co-transfection expression plasmids, comprising full-length LXRα (pCMX-h LXRα[…] or LXRβ (pCMX-hLXRβ), reporter plasmid (LXREx1-Tk-Luciferase), and control (pCMX-Galactosidase expression vector) (Willey et al. Genes & Development 9 1033-1045 (1995)).
CV-1 cells were prepared 24 hours prior to the experiment by plating them into T-175 flasks or 500 cm^2 dishes in order to achieve 70-80% confluency on the day of the transfection. The number of cells to be transfected was determined by the number of plates to be screened. Each well of a 384 well plate requires 1.5×10^4 cells. DNA Transfection Reagent was prepared by mixing the required plasmid DNAs with a cationic lipid transfection reagent Transit 2020 (Mirus Bio) for CV1 by following the instructions provided with the reagents. Optimal DNA amounts were determined empirically per cell line and size of vessel to be transfected. For each T175 cm^2 flask a total of 59 ug for CV1 of DNA, 133 uL Transit2020 and 4.5 mL DMEM for CV1 was mixed and added. Cells were then incubated at least 5 hours at 37° C. to prepare screening cells.
Luciferase assay reagent (*Steady-Glo Luciferase Assay System by Promega, CAT#E2550) was prepared by combining before use:
Assay plates were prepared by dispensing 5 μL of compound per well of a 384 well plate to achieve final compound concentration of 10 μM and no more than 0.5% DMSO. Media was removed from the screening cells, the cells trypsinized, harvested cells by centrifugation, counted, and plated at a density of approximately 1.5×10^4 cells in the 384 well assay plate prepared above in a volume of about 95 uL. Assay plates containing both compounds and screening cells (100 μL in total volume) were incubated for 20 hours at 37° C.
After incubation with compounds, media was removed from the cells and luciferase assay reagent (50 μL/well) added. After ˜2 minutes at ambient temperature, the assay plates were read on a luminometer (PE Biosystems Northstar reader with on-board injectors, or Envision(Perkin Elmer) or equivalent).
The LXR/LXRE co-transfection assay can be used to establish the EC50/IC50 values for potency and percent activity or inhibition for efficacy. Efficacy defines the activity of a compound relative to a high control 1-(2,4-difluorobenzyl)-2-oxo-6-(4-phenoxyphenyl)-4-(trifluoromethyl)-1,2-dihydropyridine-3-carbonitrileor a low control (DMSO/vehicle). The dose response curves are generated from a 11 point curve with concentrations differing by ½ LOG units. Each point represents the average of 2 wells of data from duplicate 384 well plate.
The data from this assay is fitted to the following equation, from which the EC50 value may be solved: Y=Bottom+(Top−Bottom)/(1+10^((logEC50-X)*HillSlope)).
The EC50/IC50 is therefore defined as the concentration at which an agonist or antagonist elicits a response that is halfway between the Top (maximum) and Bottom (baseline) values. The EC50/IC50 values represented are the averages of at least 2 and normally 3 independent experiments. […]

Compound | EC50 | Emax
Cc1nc(C(F)(F)F)cn1-c1cc(F)c(-c2cccc(S(C)(=O)=O)c2)cc1-n1nncc1-c1ccc(Cl)cc1Cl [Example 101, 5-(2,4-dichlorophenyl)-1-{6-fluoro-3′-(methylsulfonyl)-4-[2-methyl-4-(trifluoromethyl)-1H-imidazol-1-yl]biphenyl-3-yl}-1H-1,2,3-triazole] | 782 nM | 73%
Cc1nc(C(F)(F)F)cn1-c1ccc(-c2cccc(S(C)(=O)=O)c2)cc1-n1nncc1-c1ccc(F)c(F)c1 [Example 34, 5-(3,4-difluorophenyl)-1-{3′-(methylsulfonyl)-4-[2-methyl-4-(trifluoromethyl)-1H-imidazol-1-yl]biphenyl-3-yl}-1H-1,2,3-triazole] | 661 nM | 94%
Cc1nc(-c2cc(-c3cccc(S(C)(=O)=O)c3)ccc2-n2cc(C(F)(F)F)nc2C)c(-c2ccc(F)c(C#N)c2)o1 [Example 506, 2-fluoro-5-(2-methyl-4-(4-(2-methyl-4-(trifluoromethyl)-1H-imidazol-1-yl)-3′-(methylsulfonyl)biphenyl-3-yl)oxazol-5-yl)benzonitrile] | 349 nM | 77%
Cc1nc(C(F)(F)F)c(Cl)n1-c1ccc(-c2cc(F)c(CO)c(S(C)(=O)=O)c2)cc1-n1nncc1-c1ccc(OC(F)(F)F)cc1 [Example 1, {4′-[5-chloro-2-methyl-4-(trifluoromethyl)-1H-imidazol-1-yl]-3-fluoro-5-(methylsulfonyl)-3′-(5-{4-[(trifluoromethyl)oxy]phenyl}-1H-1,2,3-triazol-1-yl)biphenyl-4-yl}methanol] | 40 nM | 116%
COC(=O)c1ccc(-c2cnnn2-c2cc(-c3cccc(S(C)(=O)=O)c3)ccc2-n2cc(C(F)(F)F)nc2C)cc1 [Example 82, methyl 4-(1-{3′-(methylsulfonyl)-4-[2-methyl-4-(trifluoromethyl)-1H-imidazol-1-yl]biphenyl-3-yl}-1H-1,2,3-triazol-5-yl)benzoate] | 260 nM | 89%
Cc1nc(C(F)(F)F)cn1-c1ccc(-c2cc(F)c(CO)c(S(C)(=O)=O)c2)cc1-n1nncc1-c1ccc(OC(F)(F)F)c(F)c1 [Example 56, {3-fluoro-3′-(5-{3-fluoro-4-[(trifluoromethyl)oxy]phenyl}-1H-1,2,3-triazol-1-yl)-5-(methylsulfonyl)-4′-[2-methyl-4-(trifluoromethyl)-1H-imidazol-1-yl]biphenyl-4-yl}methanol] | 133 nM | 101%
Cc1nc(C(F)(F)F)cn1-c1c(F)cc(-c2ccc(CO)c(S(C)(=O)=O)c2)cc1-n1nncc1-c1ccc(OC(F)(F)F)cc1 [Example 203, [3′-fluoro-3-(methylsulfonyl)-4′-[2-methyl-4-(trifluoromethyl)-1H-imidazol-1-yl]-5′-(5-{4-[(trifluoromethyl)oxy]phenyl}-1H-1,2,3-triazol-1-yl)biphenyl-4-yl]methanol] | 127 nM | 71%
Cc1nc(C(=O)C(C)C)cn1-c1ccc(-c2cc(F)c(CO)c(S(C)(=O)=O)c2)cc1-n1nncc1-c1ccc(OC(F)(F)F)cc1 [Example 235, 1-(1-(3′-fluoro-4′-(hydroxymethyl)-5′-(methylsulfonyl)-3-(5-(4-(trifluoromethoxy)phenyl)-1H-1,2,3-triazol-1-yl)-[1,1′-biphenyl]-4-yl)-2-methyl-1H-imidazol-4-yl)-2-methylpropan-1-one] | 2270 nM | 85%
Cc1nc(C(F)(F)F)cn1-c1ccc(-c2cc(F)c(CO)c(S(C)(=O)=O)c2)cc1-c1nc(C(C)C)oc1-c1ccc(OC(F)(F)F)cc1 [Example 560, (3-fluoro-3′-(2-isopropyl-5-(4-(trifluoromethoxy)phenyl)oxazol-4-yl)-4′-(2-methyl-4-(trifluoromethyl)-1H-imidazol-1-yl)-5-(methylsulfonyl)-[1,1′-biphenyl]-4-yl)methanol] | 16 nM | 75%
Cc1nc(C(F)(F)F)cn1-c1ccc(-c2cccc(S(C)(=O)=O)c2)cc1-n1nncc1-c1cc(F)c(F)c(F)c1 [Example 71, 1-{3′-(methylsulfonyl)-4-[2-methyl-4-(trifluoromethyl)-1H-imidazol-1-yl]biphenyl-3-yl}-5-(3,4,5-trifluorophenyl)-1H-1,2,3-triazole] | 400 nM | 105%
CNS(=O)(=O)c1cccc(-c2ccc(-n3cc(C(F)(F)F)nc3C)c(-c3ocnc3-c3ccc(OC(F)(F)F)cc3)c2)c1 [Example 357, N-methyl-4′-[2-methyl-4-(trifluoromethyl)-1H-imidazol-1-yl]-3′-(4-{4-[(trifluoromethyl)oxy]phenyl}-1,3-oxazol-5-yl)biphenyl-3-sulfonamide] | 106 nM | 98%
Cc1nc(-c2cc(-c3cccc(S(C)(=O)=O)c3)ccc2-n2cc(C#N)nc2C)c(-c2ccc3c(c2)OC(F)(F)O3)o1 [Example 371, 1-(3-(5-(2,2-difluorobenzo[d][1,3]dioxol-5-yl)-2-methyloxazol-4-yl)-3′-(methylsulfonyl)biphenyl-4-yl)-2-methyl-1H-imidazole-4-carbonitrile] | 248 nM | 45%
COCS(=O)(=O)c1cccc(-c2ccc(-n3cc(C(F)(F)F)nc3C)c(-c3nc(C)oc3-c3ccc(OC(F)(F)F)cc3)c2)c1 [Example 539, 4-(3′-((methoxymethyl)sulfonyl)-4-(2-methyl-4-(trifluoromethyl)-1H-imidazol-1-yl)-[1,1′-biphenyl]-3-yl)-2-methyl-5-(4-(trifluoromethoxy)phenyl)oxazole] | 206 nM | 81%
Cc1nc(C(F)(F)F)cn1-c1ccc(-c2cc(F)c(CO)c(S(C)(=O)=O)c2)cc1-n1nncc1Cc1ccc(Cl)cc1 [Example 113] | 524 nM | 72%
Cc1nc(C(F)(F)F)cn1-c1ccc(-c2cccc(S(C)(=O)=O)c2)cc1-c1nc(C2CC2)oc1-c1ccc2c(c1)OC(F)(F)O2 [Example 482, 2-cyclopropyl-5-(2,2-difluorobenzo[d][1,3]dioxol-5-yl)-4-(4-(2-methyl-4-(trifluoromethyl)-1H-imidazol-1-yl)-3′-(methylsulfonyl)biphenyl-3-yl)oxazole] | 40 nM | 71%
